Measurements as given in patent publication US20250320213A1, “Nitrogen-Containing Heterocyclic Compounds” (Pfizer Inc., priority 2024, published 2025).

Legend:
STAT6 = biological target: T1, STAT6 (Homo sapiens, UniProt P42226); assay: STAT6 Reporter Luciferase Assay (IL-13 stimulated HaCaT keratinocyte NanoLuc reporter cells); assay type: cell-based; settings: IL-13 stimulated HaCaT STAT6 NanoLuc reporter cells; read-out: Reporter EC50
T1 construct: stably transfected HaCaT keratinocyte cell line, which expresses NanoLuc luciferase reporter gene under the transcriptional control of the STAT6 responsive promoter; endogenous in cells; host or cells: HaCaT keratinocyte reporter cell line (stably transfected with a NanoLuc reporter)
T1 sequence (P42226 1-847): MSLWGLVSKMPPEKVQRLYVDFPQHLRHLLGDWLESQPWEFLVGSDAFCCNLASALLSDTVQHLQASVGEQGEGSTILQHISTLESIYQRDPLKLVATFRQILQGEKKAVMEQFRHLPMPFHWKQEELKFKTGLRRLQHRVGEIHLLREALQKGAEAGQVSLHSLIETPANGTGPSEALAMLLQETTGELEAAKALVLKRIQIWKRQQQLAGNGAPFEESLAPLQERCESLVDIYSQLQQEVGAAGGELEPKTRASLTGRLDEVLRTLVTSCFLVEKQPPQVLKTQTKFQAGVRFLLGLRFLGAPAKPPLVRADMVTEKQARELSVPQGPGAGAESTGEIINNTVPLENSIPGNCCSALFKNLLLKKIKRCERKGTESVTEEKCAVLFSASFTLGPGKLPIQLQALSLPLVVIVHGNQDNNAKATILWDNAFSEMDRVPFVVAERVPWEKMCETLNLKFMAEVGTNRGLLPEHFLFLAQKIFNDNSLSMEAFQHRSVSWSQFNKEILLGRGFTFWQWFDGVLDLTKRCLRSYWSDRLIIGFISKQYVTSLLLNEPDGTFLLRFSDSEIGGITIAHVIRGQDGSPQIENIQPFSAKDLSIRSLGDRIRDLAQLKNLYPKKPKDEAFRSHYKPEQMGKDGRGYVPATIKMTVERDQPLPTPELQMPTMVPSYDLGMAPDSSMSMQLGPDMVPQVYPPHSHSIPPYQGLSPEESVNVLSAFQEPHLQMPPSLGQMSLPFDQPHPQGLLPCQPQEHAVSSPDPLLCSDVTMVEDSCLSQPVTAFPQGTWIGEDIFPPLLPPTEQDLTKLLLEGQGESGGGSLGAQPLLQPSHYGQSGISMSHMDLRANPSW
In short: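 HaCaT cells stably carrying a NanoLuc reporter driven by the STAT6-responsive IL-13Ra2 promoter were preincubated with compounds for 2 h at 37 °C in 2% FBS medium. Cells were then stimulated with 0.12 nM IL-13 for 4 h, and luminescence was read after Nano-Glo substrate. Compounds ran as 11-point 4-fold dilutions in duplicate.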

[1] = tested on: CCL17 secretion in peripheral human whole blood; assay: Human Whole Blood (HWB) CCL17 TR-FRET Assay (IL-13 stimulated CCL17 secretion); assay type: cell-based; settings: Homo sapiens, 48 h, human whole blood, 10 ng/mL IL13, 48 hours
In short: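 IC50 values reflect inhibition of IL-13-driven CCL17 release in human whole blood. Blood was preincubated with compound 2 h, stimulated 48 h at 37 °C with IL-13 (10 ng/mL final), and serum CCL17 was measured by TR-FRET.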

SMILES | EC50 (STAT6) [nM] | IC50 [1] [nM]
CC(C)n1nc(C(=O)NCc2ccc(C(=O)NCC3CCN(C)CC3)cc2)c2c1[C@@H](C)CN(c1ccc(C(=O)N(C)C)cn1)C2 [Example 618, (S)-5-(5-(dimethylcarbamoyl)pyridin-2-yl)-1-isopropyl-7-methyl-N-(4-(((1-methylpiperidin-4-yl)methyl)carbamoyl)benzyl)-4,5,6,7-tetrahydro-1H-pyrazolo[4,3-c]pyridine-3-carboxamide] | 127 | 612
CNC1CN(C(=O)Nc2ccc(CNC(=O)c3nn(C(C)C)c4c3CN(c3ccc(C(=O)N(C)C)cc3)C[C@@H]4C)cc2)C1 [Example 619, (S)-5-(4-(dimethylcarbamoyl)phenyl)-1-isopropyl-7-methyl-N-(4-(3-(methylamino)azetidine-1-carboxamido)benzyl)-4,5,6,7-tetrahydro-1H-pyrazolo[4,3-c]pyridine-3-carboxamide] | 3 | 19
CC(C)n1nc(C(=O)NCc2ccc(NC(=O)N3CCC(C4CCNCC4)CC3)cc2)c2c1[C@@H](C)CN(c1ccc(C(=O)N(C)C)cc1)C2 [Example 620, (S)-N-(4-([4,4′-bipiperidine]-1-carboxamido)benzyl)-5-(4-(dimethylcarbamoyl)phenyl)-1-isopropyl-7-methyl-4,5,6,7-tetrahydro-1H-pyrazolo[4,3-c]pyridine-3-carboxamide] | 1 | 8
CC(C)n1nc(C(=O)NCc2ccc(NC(=O)N3CC4(CCN4)C3)cc2)c2c1[C@@H](C)CN(c1ccc(C(=O)N(C)C)cc1)C2 [Example 621, (S)-N-(4-(1,6-diazaspiro[3.3]heptane-6-carboxamido)benzyl)-5-(4-(dimethylcarbamoyl)phenyl)-1-isopropyl-7-methyl-4,5,6,7-tetrahydro-1H-pyrazolo[4,3-c]pyridine-3-carboxamide] | 7 | 31
CC(C)n1nc(C(=O)NCc2ccc(NC(=O)N3CCC4(CCCNC4)CC3)cc2)c2c1[C@@H](C)CN(c1ccc(C(=O)N(C)C)cc1)C2 [Example 622, (S)-N-(4-((5-(4-(dimethylcarbamoyl)phenyl)-1-isopropyl-7-methyl-4,5,6,7-tetrahydro-1H-pyrazolo[4,3-c]pyridine-3-carboxamido)methyl)phenyl)-2,9-diazaspiro[5.5]undecane-9-carboxamide] | 4 | 16
CC(C)n1nc(C(=O)NCc2ccc(NC(=O)N3CCC4(CC3)CNC4)cc2)c2c1[C@@H](C)CN(c1ccc(C(=O)N(C)C)cc1)C2 [Example 623, (S)-N-(4-(2,7-diazaspiro[3.5]nonane-7-carboxamido)benzyl)-5-(4-(dimethylcarbamoyl)phenyl)-1-isopropyl-7-methyl-4,5,6,7-tetrahydro-1H-pyrazolo[4,3-c]pyridine-3-carboxamide] | 13 | 37
CC(C)n1nc(C(=O)NCc2ccc(NC(=O)N3CCC(CC4CCNCC4)CC3)cc2)c2c1[C@@H](C)CN(c1ccc(C(=O)N(C)C)cc1)C2 [Example 624, (S)-5-(4-(dimethylcarbamoyl)phenyl)-1-isopropyl-7-methyl-N-(4-(4-(piperidin-4-ylmethyl)piperidine-1-carboxamido)benzyl)-4,5,6,7-tetrahydro-1H-pyrazolo[4,3-c]pyridine-3-carboxamide] | 1 | 18
CC(C)n1nc(C(=O)NCc2ccc(NC(=O)N3CCC4(CCNCC4)CC3)cc2)c2c1[C@@H](C)CN(c1ccc(C(=O)N(C)C)cc1)C2 [Example 625, (S)-N-(4-((5-(4-(dimethylcarbamoyl)phenyl)-1-isopropyl-7-methyl-4,5,6,7-tetrahydro-1H-pyrazolo[4,3-c]pyridine-3-carboxamido)methyl)phenyl)-3,9-diazaspiro[5.5]undecane-3-carboxamide] | 10 | 24
CC(C)n1nc(C(=O)NCc2ccc(NC(=O)N3CC4(CCNCC4)C3)cc2)c2c1[C@@H](C)CN(c1ccc(C(=O)N(C)C)cc1)C2 [Example 626, (S)-N-(4-(2,7-diazaspiro[3.5]nonane-2-carboxamido)benzyl)-5-(4-(dimethylcarbamoyl)phenyl)-1-isopropyl-7-methyl-4,5,6,7-tetrahydro-1H-pyrazolo[4,3-c]pyridine-3-carboxamide] | 38 | 88
CC(C)n1nc(C(=O)NCc2ccc(NC(=O)N3CC(N)C3)cc2)c2c1[C@@H](C)CN(c1ccc(C(=O)N(C)C)cc1)C2 [Example 627, (S)-N-(4-(3-aminoazetidine-1-carboxamido)benzyl)-5-(4-(dimethylcarbamoyl)phenyl)-1-isopropyl-7-methyl-4,5,6,7-tetrahydro-1H-pyrazolo[4,3-c]pyridine-3-carboxamide] | 7 | 23
CC(C)n1nc(C(=O)NCc2ccc(NC(=O)N3CCC4(CC3)CNCCO4)cc2)c2c1[C@@H](C)CN(c1ccc(C(=O)N(C)C)cc1)C2 [Example 628, (S)-N-(4-((5-(4-(dimethylcarbamoyl)phenyl)-1-isopropyl-7-methyl-4,5,6,7-tetrahydro-1H-pyrazolo[4,3-c]pyridine-3-carboxamido)methyl)phenyl)-1-oxa-4,9-diazaspiro[5.5]undecane-9-carboxamide] | 1 | 4
CC(C)n1nc(C(=O)NCc2ccc(NC(=O)N(C)C)cc2)c2c1[C@@H](C)CN(c1ccc(C(=O)N(C)CC3CN(C)C3)cc1)C2 [Example 629, (S)-N-(4-(3,3-dimethylureido)benzyl)-1-isopropyl-7-methyl-5-(4-(methyl((1-methylazetidin-3-yl)methyl)carbamoyl)phenyl)-4,5,6,7-tetrahydro-1H-pyrazolo[4,3-c]pyridine-3-carboxamide] | 121 | 390
CC(C)n1nc(C(=O)NCc2ccc(NC(=O)N3CCNCC3)cc2Cl)c2c1[C@@H](C)CN(c1ccc(C(=O)N(C)C)cc1)C2 [Example 630, (S)-N-(2-chloro-4-(piperazine-1-carboxamido)benzyl)-5-(4-(dimethylcarbamoyl)phenyl)-1-isopropyl-7-methyl-4,5,6,7-tetrahydro-1H-pyrazolo[4,3-c]pyridine-3-carboxamide] | 9 | 55
CC(C)n1nc(C(=O)NCc2ccc(NC(=O)N3CCN(C)CC3)cc2)c2c1[C@@H](C)CN(c1ccc(-n3nccn3)cn1)C2 [Example 631, (S)-5-(5-(2H-1,2,3-triazol-2-yl)pyridin-2-yl)-1-isopropyl-7-methyl-N-(4-(4-methylpiperazine-1-carboxamido)benzyl)-4,5,6,7-tetrahydro-1H-pyrazolo[4,3-c]pyridine-3-carboxamide] | 1 | 24
CC(C)n1nc(C(=O)NCc2ccc(NC(=O)N3CC4(CCN(C)CC4)C3)c(F)c2)c2c1[C@@H](C)CN(c1ccc(-n3ccccc3=O)cn1)C2 [Example 632, (S)-N-(3-fluoro-4-(7-methyl-2,7-diazaspiro[3.5]nonane-2-carboxamido)benzyl)-1-isopropyl-7-methyl-5-(2-oxo-2H-[1,3′-bipyridin]-6′-yl)-4,5,6,7-tetrahydro-1H-pyrazolo[4,3-c]pyridine-3-carboxamide] | 5 | 39
CC(C)n1nc(C(=O)NCc2ccc(NC(=O)N3CCC4(CC3)CN(C)C4)cc2)c2c1[C@@H](C)CN(c1ccc(-n3ccccc3=O)cn1)C2 [Example 633, (S)-1-isopropyl-7-methyl-N-(4-(2-methyl-2,7-diazaspiro[3.5]nonane-7-carboxamido)benzyl)-5-(2-oxo-2H-[1,3′-bipyridin]-6′-yl)-4,5,6,7-tetrahydro-1H-pyrazolo[4,3-c]pyridine-3-carboxamide] | 2 | 13
CC(C)n1nc(C(=O)NCc2ccc(NC(=O)N3CC4(CCN(C)CC4)C3)cc2)c2c1[C@@H](C)CN(c1ccc(-n3ccccc3=O)cn1)C2 [Example 634, (S)-1-isopropyl-7-methyl-N-(4-(7-methyl-2,7-diazaspiro[3.5]nonane-2-carboxamido)benzyl)-5-(2-oxo-2H-[1,3′-bipyridin]-6′-yl)-4,5,6,7-tetrahydro-1H-pyrazolo[4,3-c]pyridine-3-carboxamide] | 4 | 29
